# From patent US20250059174A1, “Pharmaceutical Compounds and Compositions as C-Kit Kinase Inhibitors” (Enanta Pharmaceuticals, Inc., priority 2023, published 2025)
# Experiments:
# M-07e cells = assay: M-07e cellular assay (SCF-mediated cell proliferation); type: cell-based; details: Homo sapiens, 72 hours, CellTiter Glo
# Summary of the method: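 Readout came from CellTiter Glo after 72 h of compound treatment in SCF (EC90)-stimulated, pre-starved M-07e cells at 37 °C.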
# [1] = molecular target: Recombinant human c-KIT kinase (Homo sapiens (Human), UniProt P10721); assay: c-KIT kinase chemiluminescence assay (ADP-Glo); type: biochemical; details: ATP 50 μM
# Summary of the method: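 Recombinant human c-KIT preincubated 30 min at RT in 40 mM Tris pH 7.5, 20 mM MgCl2, 0.1 mg/mL BSA, 50 μM DTT, then reacted 2 h at RT with ATP and polyEY substrate. ADP-Glo luminescence readout; activity normalized to high/low controls, IC50 and Hill coefficient from inhibitor-versus-normalized-response fit.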
# Chain of Recombinant human c-KIT kinase (P10721 26-976): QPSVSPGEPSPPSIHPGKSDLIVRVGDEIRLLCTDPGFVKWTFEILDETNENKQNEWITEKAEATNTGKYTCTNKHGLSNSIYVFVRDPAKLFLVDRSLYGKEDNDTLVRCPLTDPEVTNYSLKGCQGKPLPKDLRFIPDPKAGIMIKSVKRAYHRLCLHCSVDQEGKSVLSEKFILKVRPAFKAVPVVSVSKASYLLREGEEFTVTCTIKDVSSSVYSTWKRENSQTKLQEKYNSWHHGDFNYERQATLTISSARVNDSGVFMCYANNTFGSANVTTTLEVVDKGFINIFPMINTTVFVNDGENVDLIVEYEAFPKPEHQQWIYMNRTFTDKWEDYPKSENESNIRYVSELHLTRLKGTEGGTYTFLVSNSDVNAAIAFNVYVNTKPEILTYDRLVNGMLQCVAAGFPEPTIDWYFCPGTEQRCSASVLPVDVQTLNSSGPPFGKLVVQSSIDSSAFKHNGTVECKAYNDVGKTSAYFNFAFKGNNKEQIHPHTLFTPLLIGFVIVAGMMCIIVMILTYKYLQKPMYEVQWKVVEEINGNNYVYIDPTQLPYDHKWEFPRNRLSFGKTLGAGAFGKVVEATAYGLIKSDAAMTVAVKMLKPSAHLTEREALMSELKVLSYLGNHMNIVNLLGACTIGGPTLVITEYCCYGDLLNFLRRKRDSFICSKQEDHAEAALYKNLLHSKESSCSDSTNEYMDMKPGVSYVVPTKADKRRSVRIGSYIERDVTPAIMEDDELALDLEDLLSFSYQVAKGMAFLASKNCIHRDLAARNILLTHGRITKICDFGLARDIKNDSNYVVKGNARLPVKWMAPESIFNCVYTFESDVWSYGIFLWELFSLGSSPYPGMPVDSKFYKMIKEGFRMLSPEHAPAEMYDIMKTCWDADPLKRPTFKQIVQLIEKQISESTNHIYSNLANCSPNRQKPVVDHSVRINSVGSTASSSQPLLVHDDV
IC50 [1],SMILES,EC50 (M-07e cells)
> 1 µM,Cc1ccc(-c2noc([C@H]3C[C@@H]3F)n2)cc1NC(=O)c1ccnc2ccccc12 [Example 27],> 1 µM
< 0.1 µM,Cc1ccc(-c2cnc(C3CC3)nc2)cc1NC(=O)c1cnn2ccc(N3CC4(COC4)C3)cc12 [Example 340],< 0.1 µM
< 0.1 µM,Cc1ccc(-c2noc([C@H]3C[C@@H]3F)n2)cc1NC(=O)c1cnc(-c2ccc3[nH]ncc3c2)o1 [Example 292],< 0.1 µM
0.1 to 1 µM,Cc1ccc(-c2noc(C3CN(C(=O)C(F)(F)F)C3)n2)cc1NC(=O)c1cnn2ccc(N3CC4(COC4)C3)cc12 [Example 281-47],> 1 µM
< 0.1 µM,Cc1ccc(-c2noc([C@]3(C)C[C@H](OC(F)F)C3)n2)cc1NC(=O)c1cnn2ccc(N3CC4(COC4)C3)cc12 [Example 281],< 0.1 µM
< 0.1 µM,Cc1ccc(-c2noc([C@H]3C[C@@H]3F)n2)cc1NC(=O)c1cnn2cc(-c3cn(C4CC(F)(F)C4)nn3)ccc12 [Example 115],< 0.1 µM
< 0.1 µM,Cc1ccc(-c2noc([C@H]3C[C@@H]3F)n2)cc1NC(=O)c1cnn2ccc(N3CC4(CN(C(=O)OC(C)(C)C)C4)C3)cc12 [Example 207],0.1 to 1 µM
0.1 to 1 µM,Cc1ccc(-c2noc([C@H]3C[C@@H]3F)n2)cc1NC(=O)c1cnn2ccc(NC(=O)OCc3ccccc3)cc12 [Example 95],0.1 to 1 µM
> 1 µM,Cc1ccc(-c2noc([C@H]3C[C@@H]3F)n2)cc1NC(=O)c1cnn2ccc(-c3cc(C(F)(F)F)nn3C(C)C)cc12 [Example 171-23],> 1 µM
0.1 to 1 µM,CC#Cc1ccc2c(C(=O)Nc3cc(-c4noc([C@H]5C[C@@H]5F)n4)c(F)cc3C)cnn2c1 [Example 132-2],0.1 to 1 µM
< 0.1 µM,CC#Cc1ccc2c(C(=O)Nc3cc(-c4noc([C@H]5C[C@@H]5F)n4)ccc3C)cnn2c1 [Example 132-1],0.1 to 1 µM
< 0.1 µM,Cc1ccc(-c2noc([C@H]3C[C@@H]3F)n2)cc1NC(=O)c1cnn2ccc(N3C[C@@H]4C[C@H]3CO4)cc12 [Example 200],< 0.1 µM
< 0.1 µM,Cc1ccc(-c2noc([C@H]3C[C@@H]3F)n2)cc1NC(=O)c1cnn2cc(-c3cn(CC(C)(C)O)nn3)ccc12 [Example 118],< 0.1 µM
> 1 µM,Cc1ccc(-c2noc([C@H]3C[C@@H]3F)n2)cc1NC(=O)c1cnc(N2CC(C(=O)NC3CC3)C2)s1 [Example 98-5],> 1 µM
< 0.1 µM,Cc1ncc(-c2ncc(C(C)C)cn2)cc1NC(=O)c1cnn2ccc(N3CC4(C3)CC(O)(C(F)F)C4)cc12 [Example 326],< 0.1 µM
0.1 to 1 µM,Cc1ccc(-c2noc(C3CN(C(=O)OC4CC4)C3)n2)cc1NC(=O)c1cnc(-c2ccc3c(c2)CC(=O)N3)o1 [Example 308-63],0.1 to 1 µM
> 1 µM,Cc1sc(-c2noc(C3CN(C(=O)[C@H]4C[C@@H]4F)C3)n2)cc1NC(=O)c1cnn2ccc(N3CC4(COC4)C3)cc12 [Example 281-126],> 1 µM
> 1 µM,Cc1ccc(-c2noc([C@H]3C[C@@H]3F)n2)cc1NC(=O)c1cnn2cc(Cl)c(-c3c(C)nn(CC(C)(C)O)c3C)cc12 [Example 165],0.1 to 1 µM
0.1 to 1 µM,Cc1ncc(-c2ccc(OC(F)(F)F)cn2)cc1NC(=O)c1cnn2ccc(N3CC4(COC4)C3)cc12 [Example 332],< 0.1 µM
< 0.1 µM,Cc1ccc(-c2noc([C@H]3C[C@@H]3F)n2)cc1NC(=O)c1cnn2ccc(N3C[C@@H](F)[C@@H]3C)cc12 [Example 224],< 0.1 µM
> 1 µM,Cc1ccc(-c2noc([C@H]3C[C@@H]3F)n2)cc1NC(=O)c1cnn2ccc(N3CC4(CCN4C(=O)OC(C)(C)C)C3)cc12 [Example 235],> 1 µM
0.1 to 1 µM,Cc1ccc(-c2noc([C@H]3C[C@@H]3F)n2)cc1NC(=O)c1cnc2n1C(C)(C)c1ccccc1-2 [Example 105],0.1 to 1 µM
0.1 to 1 µM,COC(=O)N1CCn2nc(-c3ccc(C)c(NC(=O)c4cnn5ccc(N6CC7(C6)CC(O)(C(F)F)C7)cc45)c3)nc2C1 [Example 324],0.1 to 1 µM
0.1 to 1 µM,O=C(Nc1cc(-c2noc([C@H]3C[C@@H]3F)n2)ccc1Cl)c1cnn2ccc(N3CC4(C3)CC(O)(C(F)F)C4)cc12 [Example 281-26],< 0.1 µM
> 1 µM,Cc1ccc(-c2noc([C@H]3C[C@@H]3F)n2)cc1NC(=O)c1cnn2cccnc12 [Example 7],> 1 µM
> 1 µM,Cc1ccc(-c2noc([C@H]3C[C@@H]3F)n2)cc1NC(=O)c1cnc(-c2ccncc2)o1 [Example 286],0.1 to 1 µM
0.1 to 1 µM,Cc1ccc(-c2noc([C@H]3C[C@@H]3F)n2)cc1NC(=O)c1cnn2cc(-c3cnnn3CCO)ccc12 [Example 120],0.1 to 1 µM

IC50 [1],SMILES,EC50 (M-07e cells)
0.1 to 1 µM,Cc1sc(-c2nccc(C3CC3)n2)cc1NC(=O)c1cnn2ccc(N3CC4(C3)CC(O)(C(F)F)C4)cc12 [Example 347],0.1 to 1 µM
> 1 µM,Cc1cc(C)c(-c2ccn3ncc(C(=O)Nc4cc(-c5noc([C@H]6C[C@@H](OC(F)(F)F)C6)n5)ccc4C)c3c2)c(C)c1 [Example 171-3],> 1 µM
0.1 to 1 µM,Cc1ccc(-c2nccc(C3CC3)n2)cc1NC(=O)c1cnn2ccc(N3CC4(COC4)C3)cc12 [Example 334],< 0.1 µM
0.1 to 1 µM,Cc1ccc(-c2noc([C@H]3C[C@@H]3F)n2)cc1NC(=O)c1cnc(-c2cccc(NS(C)(=O)=O)c2)o1 [Example 308-28],0.1 to 1 µM
< 0.1 µM,Cc1ccc(-c2noc([C@H]3C[C@@H]3F)n2)cc1NC(=O)c1cnn2cc(-c3cn(CC4(C)COC4)nn3)ccc12 [Example 119],< 0.1 µM
0.1 to 1 µM,O=C(Nc1cc(-c2noc([C@H]3C[C@@H]3F)n2)ccc1C(F)F)c1cnn2ccc(N3CC4(C3)CC(O)(C(F)F)C4)cc12 [Example 281-118],< 0.1 µM
< 0.1 µM,Cc1ccc(-c2noc([C@H]3C[C@@H]3F)n2)cc1NC(=O)c1cnn2ccc(-c3c(C)nn(C4COC4)c3C)cc12 [Example 145],< 0.1 µM
< 0.1 µM,Cc1ccc(-c2ccc(C3CC3)cn2)cc1NC(=O)c1cnn2ccc(N3CC4(COC4)C3)cc12 [Example 336],< 0.1 µM
0.1 to 1 µM,Cc1sc(-c2noc(C3CN(C(=O)C4CC4)C3)n2)cc1NC(=O)c1cnn2ccc(N3CC4(C3)CC(O)(C(F)F)C4)cc12 [Example 281-122],> 1 µM
> 1 µM,Cc1ccc(-c2noc([C@H]3C[C@@H]3F)n2)cc1NC(=O)c1cccnn1 [Example 5],> 1 µM
0.1 to 1 µM,Cc1ccc(-c2noc([C@H]3C[C@@H]3F)n2)cc1NC(=O)c1cnc(-c2ccc(NS(C)(=O)=O)cc2)o1 [Example 308-22],0.1 to 1 µM
0.1 to 1 µM,Cc1ccc(-c2nc3n(n2)CCCC3)cc1NC(=O)c1cnn2ccc(N3CC4(C3)CC(O)(C(F)F)C4)cc12 [Example 321],0.1 to 1 µM
< 0.1 µM,Cc1ccc(-c2noc([C@H]3C[C@@H]3F)n2)cc1NC(=O)c1cnn2ccc(-c3ccc(N4CCOCC4)nc3C)cc12 [Example 171-18],< 0.1 µM
< 0.1 µM,Cc1ccc(-c2noc([C@H]3C[C@@H]3F)n2)cc1NC(=O)c1cnn2ccc(NCC3(CO)COC3)cc12 [Example 241-8],< 0.1 µM
0.1 to 1 µM,Cc1ccc(-c2ncc(OC(F)(F)F)cn2)cc1NC(=O)c1cnc(-c2ccc3c(c2)CC(=O)N3)o1 [Example 360],0.1 to 1 µM
< 0.1 µM,Cc1ccc(-c2noc([C@H]3C[C@@H]3F)n2)cc1NC(=O)c1cnn2ccc(-c3ccn(C(F)F)n3)cc12 [Example 135],0.1 to 1 µM
< 0.1 µM,COC(=O)N1CC(c2nc(-c3cc(NC(=O)c4cnn5ccc(N6CC7(C6)CC(O)(C(F)F)C7)cc45)c(C)cc3F)no2)C1 [Example 281-52],< 0.1 µM
0.1 to 1 µM,Cc1ncc(-c2nnn(C)n2)cc1NC(=O)c1cnn2ccc(N3CC4(C3)CC(O)(C(F)F)C4)cc12 [Example 312-2],< 0.1 µM
0.1 to 1 µM,Cc1ccc(-c2noc([C@H]3C[C@@H]3F)n2)cc1NC(=O)c1cnc(-c2ccc3nc[nH]c3c2)o1 [Example 308-39],0.1 to 1 µM
< 0.1 µM,Cc1ccc(-c2noc([C@@H]3C[C@@H]4[C@H](C3)C4(F)F)n2)cc1NC(=O)c1cnn2ccc(N3CC4(COC4)C3)cc12 [Example 279],< 0.1 µM
0.1 to 1 µM,Cc1ccc(-c2noc([C@H]3C[C@@H]3F)n2)cc1NC(=O)c1cnn2ccc(N3CCN(C(=O)OC(C)(C)C)[C@H](C)C3)cc12 [Example 241-7],< 0.1 µM
< 0.1 µM,Cc1sc(-c2ncc(C3CC3)cn2)cc1NC(=O)c1cnn2ccc(N3CC4(C3)CC(O)(C(F)F)C4)cc12 [Example 346],< 0.1 µM
0.1 to 1 µM,O=C(Nc1cc(-c2noc(N3CC(F)(F)C3)n2)ccc1Cl)c1cnn2ccc(N3CC4(C3)CC(O)(C(F)F)C4)cc12 [Example 281-119],< 0.1 µM
0.1 to 1 µM,Cc1ncc(-c2noc(N3CC(F)(F)C3)n2)cc1NC(=O)c1cnn2ccc(N3CC4(COC4)C3)cc12 [Example 281-120],0.1 to 1 µM
< 0.1 µM,Cc1ccc(-c2noc([C@H]3C[C@@H](OC(F)(F)F)C3)n2)cc1NC(=O)c1cnn2ccc(N3CC4(CN(CC(F)(F)F)C4)C3)cc12 [Example 244],< 0.1 µM
0.1 to 1 µM,Cc1ccc(-c2noc([C@H]3C[C@@H]3F)n2)cc1NC(=O)c1cnc(-c2ccc3c(c2)O[C@H](C)CN3)o1 [Example 308-54],0.1 to 1 µM
